Measurements published in patent US12024510B2, “Pyrazolopyridine-diamides, their use as insecticide and processes for preparing the same” (PI INDUSTRIES LTD., priority 2017, dated 2024).

Tests used:
Format in all cases: in vivo
Helicoverpa armigera = Helicoverpa armigera diet incorporation method; conditions: third instar larvae, dead and moribund combined, 96 h after release
Summary of the method: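 500 ppm stock of compound milled with surfactant and zirconia beads to average particle size below 2 μm, dispersed in DM water, diluted as needed, and mixed into semi-synthetic diet at about 50° C. Single starved third-instar larvae per cell, held at 25° C., 70% RH; dead plus moribund larvae scored as percent mortality at 96 h.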

Plutella xylostella = experiment: whole plant or invertebrate; conditions: foliar, cabbage leaf dip, second instar larvae, dead and moribund combined, 72 h after release
Summary of the method: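 Compounds milled with zirconia beads into surfactant dispersion (500 ppm stock), diluted in 0.01% Triton-X. Cabbage leaves dipped 10 s, shade-dried 20 min; one second-instar larva per cell, 25 °C, 70% RH. Mortality (dead plus moribund) scored at 72 h.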

Spodoptera litura = Spodoptera litura diet incorporation method; conditions: third instar larvae, dead and moribund combined, 96 h after release
Summary of the method: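 Compound milled to <2 μm average particle size in surfactant, dispersed in water (500 ppm stock dispersion), then mixed into semi-synthetic diet at ~50° C. One starved third-instar larva per diet cell, 25° C, 70% RH; percent mortality (dead plus moribund) scored at 96 h.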

Measured: mortality at 300 ppm

COc1cc(C(=O)Nc2c(Br)cc3ccnn3c2C(=O)NC(C)(C)C)n(-c2ncccc2Cl)n1 [Compound 119, 5-bromo-N-(tert-butyl)-6-(1-(3-chloropyridin-2-yl)-3-methoxy-1H-pyrazole-5-carboxamido)pyrazolo[1,5-a]pyridine-7-carboxamide]
> 70%: all assays above

Cc1cc2ccnn2c(C(=O)NC(C)C2CC2)c1NC(=O)c1cc(C(F)(F)F)nn1-c1ncccc1Cl (stereo not drawn) [Compound 126, 6-(1-(3-chloropyridin-2-yl)-3-(trifluoromethyl)-1H-pyrazole-5-carboxamido)-N-(1-cyclopropylethyl)-5-methylpyrazolo[1,5-a]pyridine-7-carboxamide]
> 70%: all assays above

COc1cc(C(=O)Nc2c(Cl)cc3ccnn3c2C(=O)NC2CC2)n(-c2ncccc2Cl)n1 [Compound 132, 5-chloro-6-(1-(3-chloropyridin-2-yl)-3-methoxy-1H-pyrazole-5-carboxamido)-N-cyclopropylpyrazolo[1,5-a]pyridine-7-carboxamide]
> 70%: all assays above

COc1cc(C(=O)Nc2c(Cl)cc3ccnn3c2C(=O)NC(C)C)n(-c2ncccc2Cl)n1 [Compound 133, 5-chloro-6-(1-(3-chloropyridin-2-yl)-3-methoxy-1H-pyrazole-5-carboxamido)-N-isopropylpyrazolo[1,5-a]pyridine-7-carboxamide]
> 70%: all assays above

CCNC(=O)c1c(NC(=O)c2cc(OC)nn2-c2ncccc2Cl)c(Cl)cc2ccnn12 [Compound 134, 5-chloro-6-(1-(3-chloropyridin-2-yl)-3-methoxy-1H-pyrazole-5-carboxamido)-N-ethylpyrazolo[1,5-a]pyridine-7-carboxamide]
> 70%: all assays above

CNC(=O)c1c(NC(=O)c2cc(OC)nn2-c2ncccc2Cl)c(Cl)cc2ccnn12 [Compound 135, 5-chloro-6-(1-(3-chloropyridin-2-yl)-3-methoxy-1H-pyrazole-5-carboxamido)-N-methylpyrazolo[1,5-a]pyridine-7-carboxamide]
> 70%: all assays above

COc1cc(C(=O)Nc2c(Cl)cc3ccnn3c2C(=O)NCC(F)(F)F)n(-c2ncccc2Cl)n1 [Compound 137, 5-chloro-6-(1-(3-chloropyridin-2-yl)-3-methoxy-1H-pyrazole-5-carboxamido)-N-(2,2,2-trifluoroethyl)pyrazolo[1,5-a]pyridine-7-carboxamide]
> 70%: all assays above

CC(C)NC(=O)c1c(NC(=O)c2cc(Br)nn2-c2ncccc2Cl)c(Cl)cc2ccnn12 [Compound 138, 6-(3-bromo-1-(3-chloropyridin-2-yl)-1H-pyrazole-5-carboxamido)-5-chloro-N-isopropylpyrazolo[1,5-a]pyridine-7-carboxamide]
> 70%: all assays above

CCCCNC(=O)c1c(NC(=O)c2cc(Br)nn2-c2ncccc2Cl)c(Cl)cc2ccnn12 [Compound 139, 6-(3-bromo-1-(3-chloropyridin-2-yl)-1H-pyrazole-5-carboxamido)-N-butyl-5-chloropyrazolo[1,5-a]pyridine-7-carboxamide]
> 70%: all assays above

O=C(Nc1c(Cl)cc2ccnn2c1C(=O)NCC1CC1)c1cc(Br)nn1-c1ncccc1Cl [Compound 140, 6-(3-bromo-1-(3-chloropyridin-2-yl)-1H-pyrazole-5-carboxamido)-5-chloro-N-(cyclopropylmethyl)pyrazolo[1,5-a]pyridine-7-carboxamide]
> 70%: all assays above

C#CCNC(=O)c1c(NC(=O)c2cc(Br)nn2-c2ncccc2Cl)c(Cl)cc2ccnn12 [Compound 141, 6-(3-bromo-1-(3-chloropyridin-2-yl)-1H-pyrazole-5-carboxamido)-5-chloro-N-(prop-2-yn-1-yl)pyrazolo[1,5-a]pyridine-7-carboxamide]
> 70%: all assays above

CNC(=O)c1c(NC(=O)c2cc(Br)nn2-c2ncccc2Cl)c(Cl)cc2ccnn12 [Compound 148, 6-(3-bromo-1-(3-chloropyridin-2-yl)-1H-pyrazole-5-carboxamido)-5-chloro-N-methylpyrazolo[1,5-a]pyridine-7-carboxamide]
> 70%: all assays above

CCCNC(=O)c1c(NC(=O)c2cc(Br)nn2-c2ncccc2Cl)c(Cl)cc2ccnn12 [Compound 151, 6-(3-bromo-1-(3-chloropyridin-2-yl)-1H-pyrazole-5-carboxamido)-5-chloro-N-propylpyrazolo[1,5-a]pyridine-7-carboxamide]
> 70%: all assays above

CNC(=O)c1c(NC(=O)c2cc(Cn3nnc(C(F)(F)F)n3)nn2-c2ncccc2Cl)c(Cl)cc2ccnn12 [Compound 153, 5-chloro-6-(1-(3-chloropyridin-2-yl)-3-((5-(trifluoromethyl)-2H-tetrazol-2-yl)methyl)-1H-pyrazole-5-carboxamido)-N-methylpyrazolo[1,5-a]pyridine-7-carboxamide]
> 70%: all assays above

CCNC(=O)c1c(NC(=O)c2cc(Cn3nnc(C(F)(F)F)n3)nn2-c2ncccc2Cl)c(Cl)cc2ccnn12 [Compound 154, 5-chloro-6-(1-(3-chloropyridin-2-yl)-3-((5-(trifluoromethyl)-2H-tetrazol-2-yl)methyl)-1H-pyrazole-5-carboxamido)-N-ethylpyrazolo[1,5-a]pyridine-7-carboxamide]
> 70%: all assays above

CCNC(=O)c1c(NC(=O)c2cc(Br)nn2-c2ncccc2Cl)ccc2ccnn12 [Compound 157, 6-(3-bromo-1-(3-chloropyridin-2-yl)-1H-pyrazole-5-carboxamido)-N-ethylpyrazolo[1,5-a]pyridine-7-carboxamide]
> 70%: all assays above

CNC(=O)c1c(NC(=O)c2cc(C(F)(F)F)nn2-c2ncccc2Cl)c(Cl)cc2ccnn12 [Compound 162, 5-chloro-6-(1-(3-chloropyridin-2-yl)-3-(trifluoromethyl)-1H-pyrazole-5-carboxamido)-N-methylpyrazolo[1,5-a]pyridine-7-carboxamide]
> 70%: all assays above

CNC(=O)c1c(NC(=O)c2cc(Cn3nnc(C(F)(F)F)n3)nn2-c2ncccc2Cl)c(C)cc2ccnn12 [Compound 166, 6-(1-(3-chloropyridin-2-yl)-3-((5-(trifluoromethyl)-2H-tetrazol-2-yl)methyl)-1H-pyrazole-5-carboxamido)-N,5-dimethylpyrazolo[1,5-a]pyridine-7-carboxamide]
> 70%: all assays above

CCNC(=O)c1c(NC(=O)c2cc(Cn3nnc(C(F)(F)F)n3)nn2-c2ncccc2Cl)c(C)cc2ccnn12 [Compound 167, 6-(1-(3-chloropyridin-2-yl)-3-((5-(trifluoromethyl)-2H-tetrazol-2-yl)methyl)-1H-pyrazole-5-carboxamido)-N-ethyl-5-methylpyrazolo[1,5-a]pyridine-7-carboxamide]
> 70%: all assays above

Cc1cc2ccnn2c(C(=O)NC(C)(C)C)c1NC(=O)c1cc(Cn2nnc(C(F)(F)F)n2)nn1-c1ncccc1Cl [Compound 170, N-(tert-butyl)-6-(1-(3-chloropyridin-2-yl)-3-((5-(trifluoromethyl)-2H-tetrazol-2-yl)methyl)-1H-pyrazole-5-carboxamido)-5-methylpyrazolo[1,5-a]pyridine-7-carboxamide]
> 70%: all assays above

COCC(C)(C)NC(=O)c1c(NC(=O)c2cc(Br)nn2-c2ncccc2Cl)c(C)cc2ccnn12 [Compound 174, 6-(3-bromo-1-(3-chloropyridin-2-yl)-1H-pyrazole-5-carboxamido)-N-(1-methoxy-2-methylpropan-2-yl)-5-methylpyrazolo[1,5-a]pyridine-7-carboxamide]
> 70%: all assays above

Cc1cc2ccnn2c(C(=O)NCC(F)F)c1NC(=O)c1cc(Br)nn1-c1ncccc1Cl [Compound 186, 6-(3-bromo-1-(3-chloropyridin-2-yl)-1H-pyrazole-5-carboxamido)-N-(2,2-difluoroethyl)-5-methylpyrazolo[1,5-a]pyridine-7-carboxamide]
> 70%: all assays above

Cc1cc2ccnn2c(C(=O)NC(C)C(F)(F)F)c1NC(=O)c1cc(Br)nn1-c1ncccc1Cl (stereo not drawn) [Compound 187, 6-(3-bromo-1-(3-chloropyridin-2-yl)-1H-pyrazole-5-carboxamido)-5-methyl-N-(1,1,1-trifluoropropan-2-yl)pyrazolo[1,5-a]pyridine-7-carboxamide]
> 70%: all assays above
